From PMC10600185, “Development and pharmaceutical investigation of novel cervical cancer-targeting and redox-responsive melittin conjugates” (Scientific Reports, 2023)
Values after ≈ are worked out from the molar mass of the structure shown.

How the values were obtained:
[1] = HPLC % ACN at elution as measure of hydrophobicity; type: physicochemical; settings: semi-preparative RP-HPLC, C-18 column; for HPLC gradient (ACN %) of the purified peak: 0–100% ACN (0.025% TFA) gradient, 30 min for FA conjugates, 40 min for Target conjugates, % ACN used as hydrophobicity
Procedure: The peptide/conjugate was purificated and analyzed (data not shown) using HPLC (Agilent Technologies, USA) with C-18 column (RPC 250 × 10 mm ID hydrophobic 6 µm, Agilent VariTide). For the CM–FA and MC–FA conjugates’ purification, we used a 0–100% ACN (0.025% TFA) gradient for 30 min, and for the CM–Target, and MC–Target conjugates, we used a 0–100% ACN (0.025% TFA) gradient for 40 min. Peptide methods for HPLC purification are provided in Supp. Data 1. A Nicolet iS10 FT-IR was used to obtain infrared spectra of the peptide/conjugates in the range of 4000–500 cm^−1. The chemical structure of the peptide/conjugates was characterized by proton nuclear resonance (^1H NMR) spectroscopy using a 400-MHz Burker NMR spectrometer in DMSO-d6. To evaluate the molecular weight of the synthesized peptide, LC–MS/MS (6420 Triple Quad, Agilent Technologies) was used.

[2] = MTT cytotoxicity assay, NSF; type: cell-based; settings: human, normal skin fibroblast (NSF) cells, 24 h treatment, serial dilutions 256–1 µg/mL, concentration by modified Mel peptide content, mean of three replicates
Procedure: (§1) C-33A ([…], ATCC), HeLa ([…], ATCC), 3T3 (CRL-1658™, ATCC), Normal Skin Fibroblast (CRL-2091™, ATCC) and MCF-7 (HTB-22™, ATCC) cell lines were cultured in complete EMEM, DMEM, DMEM, EMEM, and EMEM (containing 1% Pen/Strep antibiotic and 10% FBS), respectively. Cells from the different lines were seeded at a density of 5 × 10^4 cells/well in 100 µL medium placed in a flat-bottom 96-well plate and incubated at 5% CO2 and 37 °C. After 24 h, the medium was discarded from the 96-well plate. Serial dilutions of peptide/conjugate (i.e., 256–1 µg/mL) were prepared in triplicate in 100 µL complete medium then added onto each well and incubated at 5% CO2 and 37 °C for 24 h. The cytotoxicity was determined by MTT test (MTT, Cell Proliferation Kit, Roche) and measured at 550–690 nm on a microplate reader. The cell cytotoxicity was calculated with respect to control groups treated with only complete medium.

[3] = MTT cytotoxicity assay, 3T3; type: cell-based; settings: mouse, 3T3 cells (embryonic fibroblasts), 24 h treatment, serial dilutions 256–1 µg/mL, concentration by modified Mel peptide content, mean of three replicates
Procedure: as §1

HeLa cells = assay: ROS assay (DCFDA), HeLa; type: cell-based, human; settings: 200 µM TBHP positive control, Ex/Em 485/535 nm, data not shown
Procedure: (§2) To evaluate the ROS activity of peptide/conjugates, a ROS kit (DCFDA/H2DCFDA—Cellular ROS Assay Kit, Abcam) was applied to C33A, HeLa, and Normal Skin Human Fibroblast cells. 25,000 cells/well were seeded on a flat-bottom 96-well plate and incubated at 37 °C and 5% CO2. After 24 h, the media was discarded, and the wells were washed with 1 × buffer. DCFDA was then added to wells (except for non-stained control cells) and all plates were incubated for 45 min at 37 °C and 5% CO2 in the dark. […] A positive control (TBHP) was also applied. The results were assessed using a microplate reader (Varioskan Flash, Thermo Scientific) at Ex/Em: 485/535 nm. The negative control (non-stained cells) was subtracted from the cell control and drug samples for calculation.

NSF cells = assay: ROS assay (DCFDA), NSF; type: cell-based, human; settings: 200 µM TBHP positive control, Ex/Em 485/535 nm, data not shown
Procedure: as §2

C33A cells = assay: ROS assay (DCFDA), C33A; type: cell-based, human; settings: 200 µM TBHP positive control, Ex/Em 485/535 nm, data not shown
Procedure: as §2

human red blood cells = assay: Hemolytic activity; type: cell-based; settings: human erythrocytes in tris-saline pH 7.2, 256–4 µg/mL, 37 °C, 1 h, absorbance 414 nm, triplicate
Procedure: 30 µL of fresh human blood was added to 10 mL of autoclaved tris-saline (10 mM tris, 150 mM NaCl, pH 7.2) and centrifuged at 1500 rpm for 5 min three times. 100 µL of the blood mix was added to each well of a round-bottom 96-well plate. Concentrations of freshly prepared peptide/conjugate (i.e., ranging from 256–4 µg/mL) in tris-saline (100 µL of total volume) were added to the 96-well plate containing the blood mix and the plate kept at 37 °C for 1 h. Triton X-100 in 10% DMSO-treated blood mix and blood mix without addition were used as positive and negative controls, respectively. Next, the plate was centrifuged for 10 min at 1500 rpm. The supernatants were taken into a new round-bottom 96-well plate and measured at 414 nm using a microplate reader. All samples were used as a triplicate.

cell lines = assay: Cytotoxicity of the targeting peptide alone on the cell lines; type: cell-based; settings: tested alone on cell lines, data not shown
Procedure: as §1

E. coli 25922 = assay: Minimum inhibitory concentration, E. coli; type: cell-based, Escherichia coli; design: key: No inhibitory effects were observed at any of the concentrations tested in the areas marked “X” and bacterial growth was seen; settings: MHB, two-fold dilutions 1024–0.5 µg/mL, 37 °C overnight, OD 600 nm
Procedure: (§3) The MIC of the conjugates on E. coli and S. aureus were determined. 95 µL of the MHB containing serial two-fold dilutions of each peptide/conjugate were added to a round-bottom 96-well plate from a maximum concentration of 1024 µg/mL to 0.5 µg/mL. Bacterial samples were taken from an exponentially growing culture in MHB and adjusted to 1.5 × 10^6 CFU/mL. 5 µL of the prepared bacterial suspension was added to each well and incubated at 37 °C, overnight. The bacterial growth was measured using a microplate reader (Gen5 Synergy HT, Biotek) at 600 nm. Broth containing only bacteria was used as a positive control while broth without bacteria was used as a negative control.

S. aureus 25923 = assay: Minimum inhibitory concentration, S. aureus; type: cell-based, Staphylococcus aureus; design: key: No inhibitory effects were observed at any of the concentrations tested in the areas marked “X” and bacterial growth was seen; settings: MHB, two-fold dilutions 1024–0.5 µg/mL, 37 °C overnight, OD 600 nm
Procedure: as §3

With `CC[C@H](C)[C@H](NC(=O)CN)C(=O)NCC(=O)N[C@@H](C)C(=O)N[C@H](C(=O)N[C@@H](CC(C)C)C(=O)N[C@@H](CCCCN)C(=O)N[C@H](C(=O)N[C@@H](CC(C)C)C(=O)N[C@H](C(=O)N[C@H](C(=O)NCC(=O)N[C@@H](CC(C)C)C(=O)N1CCC[C@H]1C(=O)N[C@@H](C)C(=O)N[C@@H](CC(C)C)C(=O)N[C@H](C(=O)N[C@@H](CO)C(=O)N[C@@H](Cc1c[nH]c2ccccc12)C(=O)N[C@H](C(=O)N[C@@H](CCCCN)C(=O)N[C@@H](CCCNC(=N)N)C(=O)N[C@@H](CCCCN)C(=O)N[C@@H](CCCNC(=N)N)C(=O)N[C@@H](CCC(N)=O)C(=O)N[C@@H](CCC(N)=O)C(N)=O)[C@@H](C)CC)[C@@H](C)CC)[C@@H](C)O)[C@@H](C)O)C(C)C)C(C)C` [Mel, Melittin] the “HPLC gradient (ACN %) of the purified peak” value (shortened to “HPLC gradient (ACN %)”) [1] was 63–72% and the “Hydrophobicity as % ACN at elution” value ([1]; ACN (0.025% TFA) gradient) was 67 % ACN.
In the case of `CC[C@H](C)[C@H](NC(=O)CN)C(=O)NCC(=O)N[C@@H](C)C(=O)N[C@H](C(=O)N[C@@H](CC(C)C)C(=O)N[C@@H](CCCCN)C(=O)N[C@H](C(=O)N[C@@H](CC(C)C)C(=O)N[C@H](C(=O)N[C@H](C(=O)NCC(=O)N[C@@H](CC(C)C)C(=O)N1CCC[C@H]1C(=O)N[C@@H](C)C(=O)N[C@@H](CC(C)C)C(=O)N[C@H](C(=O)N[C@@H](CO)C(=O)N[C@@H](Cc1c[nH]c2ccccc12)C(=O)N[C@H](C(=O)N[C@@H](CCCCN)C(=O)N[C@@H](CCCNC(=N)N)C(=O)N[C@@H](CCCCN)C(=O)N[C@@H](CCCNC(=N)N)C(=O)N[C@@H](CCC(N)=O)C(=O)N[C@@H](CCC(N)=O)C(=O)N[C@@H](CS)C(N)=O)[C@@H](C)CC)[C@@H](C)CC)[C@@H](C)O)[C@@H](C)O)C(C)C)C(C)C` [Mel-C], the IC50 at 24 h [2] was 43.7 µg/mL (≈ 14.8 µM), the IC50 at 24 h [3] was 130 µg/mL (≈ 44.2 µM) and the “HPLC gradient (ACN %)” value [1] was 77–79%.
With `CC(C)(C)OO` [TBHP] the “ROS level, HeLa” value (HeLa cells) was 51.26 RFU, the “ROS level, NSF” value (NSF cells) was 36.46 RFU and the “ROS level, C33A” value (C33A cells) was 60.70 RFU.
In the case of `CC[C@H](C)[C@H](NC(=O)CNC(=O)[C@@H](N)CS)C(=O)NCC(=O)N[C@@H](C)C(=O)N[C@H](C(=O)N[C@@H](CC(C)C)C(=O)N[C@@H](CCCCN)C(=O)N[C@H](C(=O)N[C@@H](CC(C)C)C(=O)N[C@H](C(=O)N[C@H](C(=O)NCC(=O)N[C@@H](CC(C)C)C(=O)N1CCC[C@H]1C(=O)N[C@@H](C)C(=O)N[C@@H](CC(C)C)C(=O)N[C@H](C(=O)N[C@@H](CO)C(=O)N[C@@H](Cc1c[nH]c2ccccc12)C(=O)N[C@H](C(=O)N[C@@H](CCCCN)C(=O)N[C@@H](CCCNC(=N)N)C(=O)N[C@@H](CCCCN)C(=O)N[C@@H](CCCNC(=N)N)C(=O)N[C@@H](CCC(N)=O)C(=O)N[C@@H](CCC(N)=O)C(N)=O)[C@@H](C)CC)[C@@H](C)CC)[C@@H](C)O)[C@@H](C)O)C(C)C)C(C)C` [C-Mel], the IC50 at 24 h [2] was 53.4 µg/mL (≈ 18.1 µM), the IC50 at 24 h [3] was 84 µg/mL (≈ 28.5 µM) and the “Hemotoxicity ranking among peptides/conjugates” value (human red blood cells) was “highest hemotoxicity”. For the same molecule, the “HPLC gradient (ACN %)” value [1] was 77–79%.
With “CKQNLAEG [Targeting peptide, CSP-KQ peptide (CKQNLAEG), specific to cervical squamous cell carcinoma tissue]” the “Toxicity of the peptide alone on cell lines” value (cell lines) was “non-toxic”, the “Minimum inhibitory concentration, E. coli 25922” value (E. coli 25922) was “X” and the “Minimum inhibitory concentration, S. aureus 25923” value (S. aureus 25923) was “X”. For the same molecule, the “HPLC gradient (ACN %)” value [1] was 53–57%.
